US5364876A, “Omega-[2-(alkyl)phenyl]-2-aminoalkanoic acids as antagonists of excitatory amino acid receptors” (Guilford Pharmaceuticals Inc., priority 1992, dated 1994)
“And” between values parts separate entries of the source, which are not always exact repeats. Identical values can stand only once.

Tests used:
[1] = test system: NMDA receptors; conditions: U.S. Pat. No. 4,657,899; cited from earlier work
[2] = test system: kainate receptors; conditions: U.S. Pat. No. 4,657,899, Table I; cited from earlier work
[3] = target: KA receptors (kainic acid-induced currents); assay: Inhibition of KA-induced currents in rat brain mRNA-injected Xenopus oocytes; format: cell-based; conditions: Xenopus oocytes injected with rat brain mRNA; IC50 converted to Ki by Cheng-Prusoff equation
Procedure: (§1) Defolliculated oocytes obtained from Xenopus laevis females were injected with 30-75 ng of poly (A+) mRNA obtained from 21-day old male Sprague-Dawley rats. Oocytes were placed individually in […] of antibiotic-supplemented modified Barthes solution (MBS, containing in mM: NaCl, 88; KCl, 1.0; NaHCO3, 2.4; HEPES, 10;MgSO4, 0.82; Ca(NO3)2, 0.33) in 96-well sterile plates and cultured for 48-120 hours prior to experimentation. Oocytes were inspected every 24 hours at which time the bathing solution is replaced with fresh MBS.
(§2) For electrophysiological studies, oocytes were positioned in a small recording chamber ([…]) and superfused with antibiotic free MBS supplemented with CaCl2 (final concentration=1.4 mM). Oocytes are impaled with a single glass microelectrode, voltage clamped at -60 to -70 mV, and perfused by gravity feed at a rate of […] at room temperature. […] Antagonists are coperfused with agonists. MBS used in NMDA assays were prepared from "glycine-free", deionized water
(§3) Potencies to inhibit kainic acid-, AMPA- and […] currents are determined from concentration-response curves. IC50 values are converted to Ki values for comparison purposes using the Cheng-Prusoff equation.

[4] = target: KA receptor; assay: KA receptor ligand binding; design: species or system rat
[5] = target: GLU (NMDA receptors); assay: GLU receptor ligand binding (NMDA receptors); conditions: read-out: Receptor Potency (Ki), GLU
[6] = target: AMPA receptors; assay: [3H]AMPA displacement binding; conditions: for Ki: [3H]AMPA displacement, read-out: Receptor Potency (Ki), AMPA
[7] = target: T1, strychnine insensitive glycine site (Rattus norvegicus, UniProt P35439); assay: Strychnine insensitive glycine binding; conditions: read-out: Receptor Potency (Ki), Glycine
T1 construct: from tissue

[8] = target: AMPA receptors (AMPA-induced currents); assay: Inhibition of AMPA-induced currents in rat brain mRNA-injected Xenopus oocytes; format: cell-based; conditions: Xenopus oocytes injected with rat brain mRNA; IC50 converted to Ki by Cheng-Prusoff equation
Procedure: as §1, §2, §3

[9] = target: CNQX labeled non-NMDA receptors; assay: CNQX-labeled non-NMDA receptor binding; conditions: read-out: Receptor Potency (Ki), CNQX

Ki, inhibition of KA-induced currents [3]	Ki [5]	Ki [7]	Structure (SMILES)	NMDA antagonist activity [1]	binding affinity for kainate receptors [2]	other results
> 50 µM	> 300 µM	41 µM	NC(Cc1cc(F)ccc1CCC(=O)O)C(=O)O (stereo not drawn) [Example 5a]	–	–	Receptor Potency (Ki), KA [4]: 475 µM; Ki [6]: 168 µM
32 µM	> 300 µM	9 µM	NC(Cc1cc(Cl)ccc1CCC(=O)O)C(=O)O (stereo not drawn) [Example 5b]	–	–	Ki [8]: 96 µM; Receptor Potency (Ki), KA [4]: 506 µM; selectivity for AMPA versus NMDA receptors ([6]; Ki GLU >300 μM versus Ki AMPA 51 μM): at least six-fold selective; Ki [6]: 51 µM
84 µM	> 1000 µM	211 µM	Cc1cc(C)c(CCC(=O)O)c(C[C@H](N)C(=O)O)c1 [Example 5c, 3,5-Dimethyl-2-(2'-carboxyethyl)phenylalanine]	–	–	–
13 µM and 13.3 µM	> 1000 µM	2400 µM	Cc1ccc(CCCC(=O)O)c(C[C@H](N)C(=O)O)c1 [Example 26, 5-Methyl-2-(3'-carboxypropyl) phenylalanine]	–	–	Ki [9]: 8.4 µM

Continued, compound first:

Structure (SMILES)	Ki, inhibition of KA-induced currents [3]	Ki [5]	Ki [7]	NMDA antagonist activity [1]	binding affinity for kainate receptors [2]	other results
NC(Cc1ccccc1CCP(=O)(O)O)C(=O)O (stereo not drawn) [2-amino-3-[2-(2-phosphonoethyl)phenyl]propanoic acid]	–	–	–	antagonists of NMDA	very low binding affinity	–
NC(Cc1ccccc1CCCP(=O)(O)O)C(=O)O (stereo not drawn) [2-amino-3-[2-(3-phosphonopropyl)phenyl]propanoic acid]	–	–	–	antagonists of NMDA	very low binding affinity	–
NC(Cc1ccccc1CP(=O)(O)O)C(=O)O (stereo not drawn) [2-amino-3-[2-phosphonomethylphenyl]propanoic acid]	–	–	–	antagonists of NMDA	very low binding affinity	–
NC(CCCc1ccccc1CP(=O)(O)O)C(=O)O (stereo not drawn) [2-amino-5-[2-phosphonomethylphenyl]pentanoic acid]	–	–	–	antagonists of NMDA	very low binding affinity	–
